Here are results for 35 compounds from patent US20240287080A1 (IDEAYA Biosciences Inc., priority 2021, published 2024).

Where only a bound is given, the exact number is not on record here.

T1 sequence (O75417 1-899): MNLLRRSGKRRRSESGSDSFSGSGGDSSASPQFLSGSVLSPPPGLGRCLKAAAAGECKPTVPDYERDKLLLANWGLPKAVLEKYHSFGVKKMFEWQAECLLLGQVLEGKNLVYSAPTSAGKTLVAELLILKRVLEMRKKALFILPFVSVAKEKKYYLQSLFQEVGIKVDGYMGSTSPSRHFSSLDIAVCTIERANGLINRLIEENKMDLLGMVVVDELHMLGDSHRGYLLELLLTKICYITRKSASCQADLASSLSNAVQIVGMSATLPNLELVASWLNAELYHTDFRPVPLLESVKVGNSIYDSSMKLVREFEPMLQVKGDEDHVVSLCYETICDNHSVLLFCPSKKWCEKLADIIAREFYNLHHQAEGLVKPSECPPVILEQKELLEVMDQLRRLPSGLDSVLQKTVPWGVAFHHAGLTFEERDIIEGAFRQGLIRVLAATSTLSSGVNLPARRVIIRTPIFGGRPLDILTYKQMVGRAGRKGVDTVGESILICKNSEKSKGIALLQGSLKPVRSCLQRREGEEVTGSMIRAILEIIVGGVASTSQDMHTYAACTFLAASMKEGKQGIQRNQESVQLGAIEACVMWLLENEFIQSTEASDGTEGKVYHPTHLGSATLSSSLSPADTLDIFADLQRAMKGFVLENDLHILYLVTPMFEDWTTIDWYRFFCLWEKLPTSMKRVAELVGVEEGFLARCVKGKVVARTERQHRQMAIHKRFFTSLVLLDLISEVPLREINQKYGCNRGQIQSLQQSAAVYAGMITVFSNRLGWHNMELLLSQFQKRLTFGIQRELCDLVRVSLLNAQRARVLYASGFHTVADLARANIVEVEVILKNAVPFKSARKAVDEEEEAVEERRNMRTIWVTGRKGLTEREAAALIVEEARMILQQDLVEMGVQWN

The first test concerns the target T1, Pol theta (1-899) (Homo sapiens, UniProt O75417).
T1 construct: Pol theta (1-899) (5 nM) in assay buffer
The test can be described thus: Pol theta ATPase activity, NADH oxidation-coupled enzymatic assay (ATPase NADH coupling: Standard Screening: hPolQ). In kind it is biochemical. To be noted: Pol theta (1-899) 5 nM, NADH oxidation-coupled ATPase assay; compounds of Table 3. A digest of the protocol:
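Rates of ATP hydrolysis taken from 60-min A340 traces of NADH oxidation via PK/LDH coupling, then fit four-parameter for IC50, Hill slope and max inhibition. Enzyme (5 nM, 1-899) and compounds preincubated 15 min before ATP 100 μM and 50-thymine ssDNA 300 nM (stock, equal volume added).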
As a reminder, the IC50 is the point on the concentration scale where inhibition reaches its midpoint. A lower IC50 goes with greater potency in that assay. `COc1cnc(C)c(F)c1-c1cc(C)ncc1C(=O)Nc1nnc(O[C@H]2CCC[C@@H](O)C2)s1` (single isomer, unassigned) [Example 236] came in with an IC50 of no more than 200 nM.
In the case of `COc1cnc(Br)cc1-c1cc(C)ncc1C(=O)Nc1nnc(O[C@@H]2CCC[C@H](O)C2)s1` (single isomer, unassigned) [Example 239], the IC50 is no more than 200 nM.
The compound `COc1cnc(Br)cc1-c1cc(C)ncc1C(=O)Nc1nnc(O[C@H]2CCC[C@@H](O)C2)s1` (single isomer, unassigned) [Example 244] yielded an IC50 of no more than 200 nM.
For `Cc1cc(-c2cc(Cl)ncc2OC(F)F)c(C(=O)Nc2nnc(O[C@@H]3CCC[C@@H](O)C3)s2)cn1` (single isomer, unassigned) [Example 251], the IC50 is no more than 200 nM.
Still for that read-out and setting: with `Cc1cc(-c2cc(Cl)ncc2OC(F)F)c(C(=O)Nc2nnc(O[C@@H]3CCC[C@H](O)C3)s2)cn1` (single isomer, unassigned) [Example 252] the figure was no more than 200 nM; with `Cc1cc(-c2cc(Cl)ncc2OC(F)F)c(C(=O)Nc2nnc(O[C@H]3CCC[C@@H](O)C3)s2)cn1` (single isomer, unassigned) [Example 253], no more than 200 nM.
On the same count and under the same terms, as for `COc1cnc(C)c(F)c1-c1cc(C)ncc1C(=O)Nc1nnc(O[C@@H]2C[C@@H]3C[C@H]2C[C@H]3O)s1` (single isomer, unassigned) [Example 254], the figure is no more than 200 nM; as for `COc1cnc(C)c(F)c1-c1cc(C)ncc1C(=O)Nc1nnc(O[C@@H]2CCC[C@H](O)C2)s1` (single isomer, unassigned) [Example 255], no more than 200 nM; as for `COc1cnc(C)c(F)c1-c1cc(C)ncc1C(=O)Nc1nnc(O[C@H]2CCC[C@H](O)C2)s1` (single isomer, unassigned) [Example 256], no more than 200 nM.
As to `COc1cnc(Cl)cc1-c1cc(C)ncc1C(=O)Nc1nnc(O[C@@H]2C[C@H](F)CN(C3COC3)C2)s1` (single isomer, unassigned) [Example 260], the IC50 is no more than 200 nM.
For the compound `COc1cnc(C)c(F)c1-c1cc(C)ncc1C(=O)Nc1nnc(O[C@H]2C[C@H]3C[C@@H]2C[C@@H]3O)s1` (single isomer, unassigned) [Example 261], the IC50 is no more than 200 nM.
`COc1cnc(Cl)cc1-c1cc(C)ncc1C(=O)Nc1nnc(O[C@@H]2C[C@@H]3C[C@H]2C[C@H]3O)s1` (single isomer, unassigned) [Example 263] showed an IC50 of no more than 200 nM.
On to `COc1cnc(Cl)cc1-c1cc(C)ncc1C(=O)Nc1nnc(O[C@H]2C[C@H]3C[C@@H]2C[C@@H]3O)s1` (single isomer, unassigned) [Example 269], for which the IC50 was no more than 200 nM.
Regarding `COc1cnc(C)c(F)c1-c1cc(C)ncc1C(=O)Nc1nnc(O[C@@H]2CCC[C@@H](O)C2)s1` (single isomer, unassigned) [Example 274], the IC50 is no more than 200 nM.
On the same count and under the same terms, as for `COc1nnc(NC(=O)c2cnc(C)cc2-c2cc(Cl)c([S+](C)[O-])cc2OC)s1` (single isomer, unassigned) [Example 277], the figure is no more than 200 nM.
The same measure, in the same setting: as for `COc1cnc(Cl)cc1-c1cc(C)ncc1C(=O)Nc1nnc(O[C@@H]2C[C@H](F)CN(C(C)C)C2)s1` (single isomer, unassigned) [Example 283], the figure is 200 to 500 nM; as for `COc1cnc(C)c(F)c1-c1cc(C)ncc1C(=O)Nc1nnc(OC2([C@H]3CCOC3)CC2)s1` (single isomer, unassigned) [Example 287], no more than 200 nM.
In the case of `COc1cnc(C)c(F)c1-c1cc(C)ncc1C(=O)Nc1nnc(OC2([C@@H]3CCOC3)CC2)s1` (single isomer, unassigned) [Example 293], the IC50 is no more than 200 nM.
With `COc1cnc(Cl)cc1-c1cc(C)ncc1C(=O)Nc1nnc(OC2([C@H]3CCOC3)CC2)s1` (single isomer, unassigned) [Example 297], the IC50 is no more than 200 nM.
On the same count and under the same terms, as for `COc1nnc(NC(=O)c2cnc(C)cc2-c2cc(Cl)c([S+](C)[O-])cc2OC)s1` (single isomer, unassigned) [Example 298], the figure is 500 to 1000 nM.
On the same count and under the same terms, as for `COc1cnc(Cl)cc1-c1cc(C)ncc1C(=O)Nc1nnc(OC2([C@@H]3CCOC3)CC2)s1` (single isomer, unassigned) [Example 299], the figure is no more than 200 nM; as for `COc1cnc(C)c(F)c1-c1cc(C)ncc1C(=O)Nc1nnc(O[C@@H]2CO[C@H]3OCC[C@H]32)s1` (single isomer, unassigned) [Example 304], no more than 200 nM; as for `COc1cnc(Cl)cc1-c1cc(C)ncc1C(=O)Nc1nnc(O[C@@H]2CO[C@H]3OCC[C@H]32)s1` (single isomer, unassigned) [Example 305], no more than 200 nM.
In turn, `COc1nnc(NC(=O)c2cnc(C)cc2-c2cc(C)c([S@+](C)[O-])cc2OC)s1` (single isomer, unassigned) [Example 307] had an IC50 of 200 to 500 nM.
`COc1nnc(NC(=O)c2cnc(C)cc2-c2cc(C)c([S@@+](C)[O-])cc2OC)s1` (single isomer, unassigned) [Example 308] came in with an IC50 of 1000 to 10000 nM.
For the compound `CC[S@+]([O-])c1cc(OC)c(-c2cc(C)ncc2C(=O)Nc2nnc(OC)s2)cc1Cl` (single isomer, unassigned) [Example 312], the IC50 is 500 to 1000 nM.

Still in this test, the particulars now being: Table 5; Pol theta (1-899) 5 nM, ATP, dT50 ssDNA.
Take `COc1cnc(C)c(F)c1-c1cc(C)ncc1C(=O)Nc1nnc(O[C@H]2CC[C@](C)(O)CC2)s1` (single isomer, unassigned) [Example 224, 3′-fluoro-N-(5-(((1r,4r)-4-hydroxy-4-methylcyclohexyl)oxy)-1,3,4-thiadiazol-2-yl)-5′-methoxy-2′,6-dimethyl-(4,4′-bipyridine)-3-carboxamide]: the IC50 was no more than 200 nM.
`COc1cnc(Br)cc1-c1cc(C)ncc1C(=O)Nc1nnc(O[C@H]2CC[C@](C)(O)CC2)s1` (single isomer, unassigned) [Example 225, 2′-bromo-N-(5-(((1r,4r)-4-hydroxy-4-methylcyclohexyl)oxy)-1,3,4-thiadiazol-2-yl)-5′-methoxy-6-methyl-(4,4′-bipyridine)-3-carboxamide] registered an IC50 of no more than 200 nM.
For the compound `COc1cnc(Br)cc1-c1cc(C)ncc1C(=O)Nc1nnc(O[C@@H]2COC3(CC3)C2)s1` (single isomer, unassigned) [Example 226], the IC50 is no more than 200 nM.
`COc1cnc(Br)cc1-c1cc(C)ncc1C(=O)Nc1nnc(O[C@H]2COC3(CC3)C2)s1` (single isomer, unassigned) [Example 227] displayed an IC50 of no more than 200 nM.
`COc1cnc(Cl)cc1-c1cc(C)ncc1C(=O)Nc1nnc(O[C@@H]2COC3(CC3)C2)s1` (single isomer, unassigned) [Example 228] yielded an IC50 of no more than 200 nM.
`COc1cnc(Cl)cc1-c1cc(C)ncc1C(=O)Nc1nnc(O[C@@H]2COC3(CCCC3)C2)s1` (single isomer, unassigned) [Example 229]: the IC50 was no more than 200 nM.
`COc1cnc(Cl)cc1-c1cc(C)ncc1C(=O)Nc1nnc(O[C@H]2COC3(CCCC3)C2)s1` (single isomer, unassigned) [Example 230] returned an IC50 of no more than 200 nM.
Same read-out and setting: with `Cc1cc(-c2cc(Cl)ncc2OC(F)F)c(C(=O)Nc2nnc(O[C@@H]3COC4(CC4)C3)s2)cn1` (single isomer, unassigned) [Example 232] the figure was no more than 200 nM.
`Cc1cc(-c2cc(Cl)ncc2OC(F)F)c(C(=O)Nc2nnc(O[C@H]3COC4(CC4)C3)s2)cn1` (single isomer, unassigned) [Example 233] displayed an IC50 of no more than 200 nM.
